# Source: publication PMC2229537 (The Journal of General Physiology, 2002)
# Where “and” joins values, the source holds several entries; their conditions need not be identical. Identical values can stand only once.
# How the values were obtained:
# [1] = tested on: fetal mouse receptor; settings: resting closed state; ref Zhang et al., 1995; cited from earlier work
# [2] = tested on: Torpedo receptor; settings: resting closed state; ref Sine et al., 1990; cited from earlier work
# [3] = tested on: adult human receptor; settings: resting closed state; ref Ohno et al., 1996; Wang et al., 1999; cited from earlier work
# [4] = tested on: EP AChRs of CMS patient (εD175N and εN182Y); experiment: Patch-clamp recordings of ACh-elicited channel currents from patient endplates; format: cell-based, human; settings: −80 mV
# [5] = biological target: wild-type AChR (Homo sapiens, UniProt P02708+Q04844+Q07001); format: binding; settings: 100 μM proadifen
# [6] = ACh 5 μM, 8 kHz, 22°C, mean ± SE, four EPs
# Sequence of wild-type AChR (P02708 21-457): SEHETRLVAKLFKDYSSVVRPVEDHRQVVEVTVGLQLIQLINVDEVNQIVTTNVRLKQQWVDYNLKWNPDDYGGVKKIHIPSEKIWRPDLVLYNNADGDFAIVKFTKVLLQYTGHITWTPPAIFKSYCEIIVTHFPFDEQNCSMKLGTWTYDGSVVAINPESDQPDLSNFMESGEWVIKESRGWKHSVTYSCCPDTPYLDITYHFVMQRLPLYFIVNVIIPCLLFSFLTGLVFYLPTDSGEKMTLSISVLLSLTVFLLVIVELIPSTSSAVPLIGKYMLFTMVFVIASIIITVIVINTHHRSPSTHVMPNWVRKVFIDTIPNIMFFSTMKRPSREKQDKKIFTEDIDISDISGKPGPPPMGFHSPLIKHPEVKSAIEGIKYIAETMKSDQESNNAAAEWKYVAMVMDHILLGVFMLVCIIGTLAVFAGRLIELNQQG
# Sequence of wild-type AChR (P11230 24-501 partner): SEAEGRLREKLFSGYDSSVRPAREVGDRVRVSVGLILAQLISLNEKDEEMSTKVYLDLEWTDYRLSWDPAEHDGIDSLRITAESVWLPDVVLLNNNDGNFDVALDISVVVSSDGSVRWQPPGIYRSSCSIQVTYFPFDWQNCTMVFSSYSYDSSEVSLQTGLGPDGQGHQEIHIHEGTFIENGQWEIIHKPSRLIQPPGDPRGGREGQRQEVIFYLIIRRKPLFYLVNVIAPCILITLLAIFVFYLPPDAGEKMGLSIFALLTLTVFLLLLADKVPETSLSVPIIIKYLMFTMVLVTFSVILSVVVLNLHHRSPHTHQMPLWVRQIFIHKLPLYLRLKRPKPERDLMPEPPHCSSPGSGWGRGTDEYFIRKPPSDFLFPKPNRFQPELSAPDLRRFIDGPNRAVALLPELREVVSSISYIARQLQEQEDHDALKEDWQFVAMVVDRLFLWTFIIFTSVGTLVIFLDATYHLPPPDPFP
# Sequence of wild-type AChR (Q07001 22-517): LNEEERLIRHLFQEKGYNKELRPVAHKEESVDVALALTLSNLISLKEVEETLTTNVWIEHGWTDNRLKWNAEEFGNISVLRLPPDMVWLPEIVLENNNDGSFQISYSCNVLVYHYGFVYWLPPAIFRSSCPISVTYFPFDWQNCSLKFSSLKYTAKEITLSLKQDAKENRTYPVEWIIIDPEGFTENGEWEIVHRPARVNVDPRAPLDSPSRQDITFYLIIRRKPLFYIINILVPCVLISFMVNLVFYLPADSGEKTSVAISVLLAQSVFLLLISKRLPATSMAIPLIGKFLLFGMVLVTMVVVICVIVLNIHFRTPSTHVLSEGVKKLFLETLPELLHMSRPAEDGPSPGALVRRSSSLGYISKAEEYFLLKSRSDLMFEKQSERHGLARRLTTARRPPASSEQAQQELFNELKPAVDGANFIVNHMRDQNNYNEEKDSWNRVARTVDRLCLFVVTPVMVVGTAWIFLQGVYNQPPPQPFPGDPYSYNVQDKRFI
# Sequence of wild-type AChR (Q04844 21-493): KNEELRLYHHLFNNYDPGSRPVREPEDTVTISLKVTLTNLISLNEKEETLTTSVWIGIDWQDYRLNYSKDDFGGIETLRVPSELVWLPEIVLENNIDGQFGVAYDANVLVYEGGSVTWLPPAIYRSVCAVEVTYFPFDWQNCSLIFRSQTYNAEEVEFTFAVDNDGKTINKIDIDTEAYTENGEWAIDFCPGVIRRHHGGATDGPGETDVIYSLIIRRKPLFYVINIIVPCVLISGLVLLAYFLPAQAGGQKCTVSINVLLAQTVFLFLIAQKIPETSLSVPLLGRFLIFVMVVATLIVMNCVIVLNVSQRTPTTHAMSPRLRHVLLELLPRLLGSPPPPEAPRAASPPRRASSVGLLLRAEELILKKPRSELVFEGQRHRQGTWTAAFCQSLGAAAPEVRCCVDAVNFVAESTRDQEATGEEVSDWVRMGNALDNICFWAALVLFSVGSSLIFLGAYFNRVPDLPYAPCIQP
Structure (SMILES),difference in ACh affinity for the two sites [1] [fold],difference in ACh affinity for the two sites [2] [fold],difference in ACh affinity for the two sites [3],"Bursts τ1 [4, 6] [ms]","Bursts τ2 [4, 6]","Bursts, area of τ1 component [4, 6]","Bursts, area of τ2 component [4, 6]","Open intervals τ1 [4, 6] [ms]","Open intervals τ2 [4, 6] [ms]","Open intervals, area of τ1 component [4, 6]","Open intervals, area of τ2 component [4, 6]","burst duration time constant τ1 ([4]; Fig. 1 histogram, one patient, 5 μM ACh)",increase of ACh affinity in the presence of proadifen [5] [fold]
"CC(=O)OCC[N+](C)(C)C [ACh, acetylcholine]",32,~100,sixfold,0.17 ± 0.025,0.59 ms and 0.59 ± 0.061 ms,0.61 ± 0.061,0.39 ± 0.061,0.17 ± 0.021,0.51 ± 0.037,0.65 ± 0.19,0.34 ± 0.096,0.185,
CCCC(C(=O)OCCN(CC)CC)(c1ccccc1)c1ccccc1 [proadifen],,,,,,,,,,,,,~100
